Values quoted from earlier work as cited in patent US20090241221A1, “TANDEM REAPEAT DNA CONSTRUCTS PRODUCING PROTEINS THAT ATTACK PLANT PATHOGENIC VIRUSES, FUNGI, AND BACTERIA BY DISRUPTING TRANSCRIPTION FACTORS ESSENTIAL FOR REPLICATION THEREOF IN PLANTS” (priority 2008, published 2009).

Test system: Magnaporthe grisea
Conditions: PA treated plants; doses in the range of 0.5 mg/mL; cited from earlier work

## O=C(O)c1ccccn1 [picolinic acid, 2-pyridine carboxylic acid]
  resistance against M. grisea: enhanced
